Measured values taken from the supplement of paper PMC10307832.

Columns and labels:
Assay in all cases: relative viability (nuclei count vs DMSO), 5 days (fraction); higher = more cells survive
[1] = tested on: NCI-H2342
Procedure, shortened: (§1)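 Relative viability was taken as the ratio of nuclei in treated wells to nuclei in vehicle wells. Lung cancer cell lines in 1536-well plates received compounds by pin tool one day after seeding, either one drug alone or a fixed anchor-drug dose plus five library-drug doses (not always all listed) in √10 steps. Nuclei were counted on 4× images after 5 days of treatment, and values are medians of duplicate plates.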

[2] = tested on: NCI-H1437
Procedure, shortened: as §1

[3] = tested on: NCI-H2087
Procedure, shortened: as §1

[4] = tested on: NCI-H23
Procedure, shortened: as §1

[5] = tested on: HCC-827
Procedure, shortened: as §1

[6] = tested on: LXF-289
Procedure, shortened: as §1

[7] = tested on: PC-3 [JPC-3]
Procedure, shortened: as §1

[8] = tested on: H3255
Procedure, shortened: as §1

[9] = tested on: NCI-H2228
Procedure, shortened: as §1

[10] = tested on: NCI-H1975
Procedure, shortened: as §1

[11] = tested on: NCI-H661
Procedure, shortened: as §1

[12] = tested on: HCC-366
Procedure, shortened: as §1

[13] = tested on: SK-MES-1
Procedure, shortened: as §1

[14] = tested on: LCLC-103H
Procedure, shortened: as §1

[15] = tested on: NCI-H2009
Procedure, shortened: as §1

[16] = tested on: HCC-15
Procedure, shortened: as §1

[17] = tested on: LC-2-ad
Procedure, shortened: as §1

[18] = tested on: COR-L23
Procedure, shortened: as §1

[19] = tested on: PC-14
Procedure, shortened: as §1

[20] = tested on: NCI-H2085
Procedure, shortened: as §1

[21] = tested on: ABC-1
Procedure, shortened: as §1

[22] = tested on: NCI-H1666
Procedure, shortened: as §1

[23] = tested on: UMC-11
Procedure, shortened: as §1

Which relative viability ([1]; first compound 0.02 µM) does the source give for `CN1CCN(CCOc2cc(OC3CCOCC3)c3c(Nc4c(Cl)ccc5c4OCO5)ncnc3c2)CC1` [Saracatinib] + CC(=O)c1c(C)c2cnc(Nc3ccc(N4CCNCC4)cn3)nc2n(C2CCCC2)c1=O [Palbociclib] (partner 0.5 µM) here?
The relative viability was 0.528.

And the relative viability ([1]; first compound 0.2 µM)?
Its relative viability is 0.479.

And the relative viability ([1]; first compound 0.6325 µM)?
Its relative viability is 0.524.

And the relative viability ([1]; first compound 2 µM)?
Its relative viability is 0.545.

What about the relative viability ([2]; first compound 0.02 µM) of the same compound?
The relative viability was 0.355.

And the relative viability ([2]; first compound 0.2 µM)?
The relative viability was 0.337.

And the relative viability ([2]; first compound 0.6325 µM)?
The relative viability was 0.455.

And the relative viability ([2]; first compound 2 µM)?
Its relative viability is 0.308.

And the relative viability ([3]; first compound 0.02 µM)?
Its relative viability is 0.252.

What about the relative viability ([3]; first compound 0.2 µM) of the same compound?
Its relative viability is 0.255.

What about the relative viability ([3]; first compound 0.6325 µM) of the same compound?
The relative viability was 0.303.

What about the relative viability ([3]; first compound 2 µM) of the same compound?
Its relative viability is 0.179.

And the relative viability ([4]; first compound 0.02 µM)?
The relative viability was 0.526.

What about the relative viability ([4]; first compound 0.6325 µM) of the same compound?
Its relative viability is 0.573.

And the relative viability ([4]; first compound 2 µM)?
The relative viability was 0.403.

And the relative viability ([5]; first compound 0.02 µM)?
The relative viability was 0.507.

And the relative viability ([5]; first compound 0.2 µM)?
The relative viability was 0.314.

What about the relative viability ([5]; first compound 0.6325 µM) of the same compound?
The relative viability was 0.185.

What about the relative viability ([5]; first compound 2 µM) of the same compound?
Its relative viability is 0.167.

What about the relative viability ([6]; first compound 0.02 µM) of the same compound?
Its relative viability is 0.621.

What about the relative viability ([6]; first compound 0.2 µM) of the same compound?
The relative viability was 0.582.

And the relative viability ([6]; first compound 0.6325 µM)?
Its relative viability is 0.601.

And the relative viability ([6]; first compound 2 µM)?
The relative viability was 0.571.

And the relative viability ([7]; first compound 0.02 µM)?
The relative viability was 0.568.

What about the relative viability ([7]; first compound 0.2 µM) of the same compound?
The relative viability was 0.507.

What about the relative viability ([7]; first compound 0.6325 µM) of the same compound?
Its relative viability is 0.532.

What about the relative viability ([7]; first compound 2 µM) of the same compound?
The relative viability was 0.561.

And the relative viability ([8]; first compound 0.02 µM)?
Its relative viability is 0.329.

What about the relative viability ([8]; first compound 0.2 µM) of the same compound?
The relative viability was 0.31.

What about the relative viability ([8]; first compound 0.6325 µM) of the same compound?
The relative viability was 0.336.

What about the relative viability ([8]; first compound 2 µM) of the same compound?
Its relative viability is 0.297.

And the relative viability ([9]; first compound 0.02 µM)?
The relative viability was 0.955.

What about the relative viability ([9]; first compound 0.2 µM) of the same compound?
The relative viability was 0.649.

What about the relative viability ([9]; first compound 0.6325 µM) of the same compound?
The relative viability was 0.805.

What about the relative viability ([9]; first compound 2 µM) of the same compound?
Its relative viability is 0.557.

What about the relative viability ([10]; first compound 0.02 µM) of the same compound?
Its relative viability is 0.584.

And the relative viability ([10]; first compound 0.2 µM)?
The relative viability was 0.603.

And the relative viability ([10]; first compound 0.6325 µM)?
The relative viability was 0.718.

And the relative viability ([10]; first compound 2 µM)?
Its relative viability is 0.441.

And the relative viability ([11]; first compound 0.02 µM)?
Its relative viability is 0.393.

What about the relative viability ([11]; first compound 0.2 µM) of the same compound?
The relative viability was 0.359.

And the relative viability ([11]; first compound 0.6325 µM)?
The relative viability was 0.395.

And the relative viability ([11]; first compound 2 µM)?
Its relative viability is 0.306.

What about the relative viability ([12]; first compound 0.02 µM) of the same compound?
Its relative viability is 0.382.

What about the relative viability ([12]; first compound 0.2 µM) of the same compound?
The relative viability was 0.176.

And the relative viability ([12]; first compound 0.6325 µM)?
The relative viability was 0.272.

And the relative viability ([12]; first compound 2 µM)?
Its relative viability is 0.164.

And the relative viability ([13]; first compound 0.02 µM)?
Its relative viability is 0.3.

What about the relative viability ([13]; first compound 0.2 µM) of the same compound?
The relative viability was 0.31.

And the relative viability ([13]; first compound 0.6325 µM)?
Its relative viability is 0.309.

What about the relative viability ([13]; first compound 2 µM) of the same compound?
Its relative viability is 0.256.

What about the relative viability ([14]; first compound 0.02 µM) of the same compound?
The relative viability was 0.498.

And the relative viability ([14]; first compound 0.2 µM)?
Its relative viability is 0.389.

What about the relative viability ([14]; first compound 0.6325 µM) of the same compound?
Its relative viability is 0.479.

And the relative viability ([14]; first compound 2 µM)?
The relative viability was 0.461.

What about the relative viability ([15]; first compound 0.02 µM) of the same compound?
The relative viability was 0.261.

What about the relative viability ([15]; first compound 0.2 µM) of the same compound?
Its relative viability is 0.136.

What about the relative viability ([15]; first compound 0.6325 µM) of the same compound?
The relative viability was 0.201.

What about the relative viability ([15]; first compound 2 µM) of the same compound?
Its relative viability is 0.136.

And the relative viability ([16]; first compound 0.02 µM)?
Its relative viability is 0.763.

And the relative viability ([16]; first compound 0.2 µM)?
The relative viability was 0.677.

And the relative viability ([16]; first compound 0.6325 µM)?
The relative viability was 0.758.

And the relative viability ([16]; first compound 2 µM)?
The relative viability was 0.753.

And the relative viability ([17]; first compound 0.02 µM)?
The relative viability was 0.571.

And the relative viability ([17]; first compound 0.2 µM)?
Its relative viability is 0.448.

What about the relative viability ([17]; first compound 0.6325 µM) of the same compound?
The relative viability was 0.504.

And the relative viability ([17]; first compound 2 µM)?
Its relative viability is 0.434.

What about the relative viability ([18]; first compound 0.02 µM) of the same compound?
The relative viability was 0.278.

And the relative viability ([18]; first compound 0.2 µM)?
Its relative viability is 0.301.

What about the relative viability ([18]; first compound 0.6325 µM) of the same compound?
The relative viability was 0.243.

What about the relative viability ([18]; first compound 2 µM) of the same compound?
The relative viability was 0.287.

And the relative viability ([19]; first compound 0.02 µM)?
The relative viability was 0.471.

What about the relative viability ([19]; first compound 0.2 µM) of the same compound?
The relative viability was 0.217.

What about the relative viability ([19]; first compound 0.6325 µM) of the same compound?
The relative viability was 0.0934.

What about the relative viability ([19]; first compound 2 µM) of the same compound?
The relative viability was 0.0848.

What about the relative viability ([20]; first compound 0.02 µM) of the same compound?
Its relative viability is 0.518.

And the relative viability ([20]; first compound 0.2 µM)?
Its relative viability is 0.448.

And the relative viability ([20]; first compound 0.6325 µM)?
Its relative viability is 0.499.

What about the relative viability ([20]; first compound 2 µM) of the same compound?
Its relative viability is 0.48.

And the relative viability ([21]; first compound 0.02 µM)?
Its relative viability is 0.624.

What about the relative viability ([21]; first compound 0.2 µM) of the same compound?
The relative viability was 0.646.

What about the relative viability ([21]; first compound 0.6325 µM) of the same compound?
The relative viability was 0.891.

What about the relative viability ([21]; first compound 2 µM) of the same compound?
The relative viability was 0.622.

And the relative viability ([22]; first compound 0.02 µM)?
Its relative viability is 0.684.

What about the relative viability ([22]; first compound 0.2 µM) of the same compound?
Its relative viability is 0.474.

And the relative viability ([22]; first compound 0.6325 µM)?
The relative viability was 0.599.

What about the relative viability ([22]; first compound 2 µM) of the same compound?
The relative viability was 0.651.

And the relative viability ([23]; first compound 0.02 µM)?
The relative viability was 0.339.

And the relative viability ([23]; first compound 0.2 µM)?
The relative viability was 0.374.

And the relative viability ([23]; first compound 0.6325 µM)?
The relative viability was 0.38.

What about the relative viability ([23]; first compound 2 µM) of the same compound?
The relative viability was 0.309.
